Experimental data: PubChem BioAssay (NCI)
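Growth conditions: 96-well plates. Treatment: test compound, 48 hours, 5 concentrations. Analysis: linear interpolation between bracketing concentrations; unreached endpoints set to highest concentration. Abbreviation: GI50, concentration required for 50% inhibition of growth. TGI is the concentration that stops growth completely.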

Assays:
Test in all cases: NCI-60 cell line screen, 48 h
MALME-3M melanoma = tested on: MALME-3M melanoma
HCT-15 colon = tested on: HCT-15 colon
LOX IMVI melanoma = tested on: LOX IMVI melanoma
OVCAR-5 ovarian = tested on: OVCAR-5 ovarian
NCI-H460 lung = tested on: NCI-H460 lung
786-0 renal = tested on: 786-0 renal
HOP-62 NSCLC = tested on: HOP-62 NSCLC
OVCAR-8 ovarian = tested on: OVCAR-8 ovarian
SF-295 CNS = tested on: SF-295 CNS
HOP-92 NSCLC = tested on: HOP-92 NSCLC
A498 renal = tested on: A498 renal
EKVX NSCLC = tested on: EKVX NSCLC
UO-31 renal = tested on: UO-31 renal
RPMI-8226 leukemia = tested on: RPMI-8226 leukemia
SK-MEL-2 melanoma = tested on: SK-MEL-2 melanoma
RXF 393 renal = tested on: RXF 393 renal
ACHN renal = tested on: ACHN renal
UACC-62 melanoma = tested on: UACC-62 melanoma
U251 CNS = tested on: U251 CNS
HCT-116 colon = tested on: HCT-116 colon
TK-10 renal = tested on: TK-10 renal
SK-MEL-28 melanoma = tested on: SK-MEL-28 melanoma
T-47D breast = tested on: T-47D breast
HT29 colon = tested on: HT29 colon
OVCAR-3 ovarian = tested on: OVCAR-3 ovarian
COLO 205 colon = tested on: COLO 205 colon
IGROV1 ovarian = tested on: IGROV1 ovarian
KM12 colon = tested on: KM12 colon

`O=C1C=CC(=CC=C2N(Cc3ccc4ccccc4c3)c3ccccc3N2Cc2ccc3ccccc3c2)C=C1` gave a GI50 (MALME-3M melanoma) of 1410 nM, a TGI (MALME-3M melanoma) of 3200 nM and a GI50 (HCT-15 colon) of 3740 nM. The TGI (HCT-15 colon) was over 100000 nM, the GI50 (LOX IMVI melanoma) was 887 nM and the TGI (LOX IMVI melanoma) was 2230 nM. The GI50 (OVCAR-5 ovarian) was 1720 nM, the TGI (OVCAR-5 ovarian) was 4410 nM and the GI50 (NCI-H460 lung) was 654 nM. The TGI (NCI-H460 lung) was 1960 nM, the GI50 (786-0 renal) was 1580 nM and the TGI (786-0 renal) was 3040 nM. The GI50 (HOP-62 NSCLC) was 2210 nM, the GI50 (OVCAR-8 ovarian) was 971 nM and the TGI (OVCAR-8 ovarian) was 2350 nM. For the same compound, the GI50 (SF-295 CNS) was 1290 nM, the TGI (SF-295 CNS) was 2870 nM and the GI50 (HOP-92 NSCLC) was 883 nM. The TGI (HOP-92 NSCLC) was 2500 nM, the GI50 (A498 renal) was 2890 nM and the TGI (A498 renal) was over 26900 nM. It also gave a GI50 (EKVX NSCLC) of 1260 nM, a TGI (EKVX NSCLC) of 3940 nM and a GI50 (UO-31 renal) of over 20700 nM. For the same compound, the TGI (UO-31 renal) was over 100000 nM, the GI50 (RPMI-8226 leukemia) was 428 nM and the TGI (RPMI-8226 leukemia) was 2180 nM. For the same compound, the GI50 (SK-MEL-2 melanoma) was 1580 nM, the TGI (SK-MEL-2 melanoma) was 3010 nM and the GI50 (RXF 393 renal) was 1330 nM. It also gave a TGI (RXF 393 renal) of 2870 nM, a GI50 (ACHN renal) of 3590 nM and a TGI (ACHN renal) of over 100000 nM. The GI50 (UACC-62 melanoma) was 1400 nM, the TGI (UACC-62 melanoma) was 2820 nM and the GI50 (U251 CNS) was 520 nM. It also gave a TGI (U251 CNS) of 1780 nM, a GI50 (HCT-116 colon) of 971 nM and a TGI (HCT-116 colon) of 3160 nM. It also gave a GI50 (TK-10 renal) of 2060 nM, a TGI (TK-10 renal) of 5270 nM and a GI50 (SK-MEL-28 melanoma) of 1290 nM. It also gave a TGI (SK-MEL-28 melanoma) of 2840 nM, a GI50 (T-47D breast) of 1330 nM and a TGI (T-47D breast) of 4750 nM. The GI50 (HT29 colon) was 1880 nM, the TGI (HT29 colon) was 5600 nM and the GI50 (OVCAR-3 ovarian) was 904 nM. The TGI (OVCAR-3 ovarian) was 2310 nM, the GI50 (COLO 205 colon) was 1290 nM and the TGI (COLO 205 colon) was 2740 nM. It also gave a GI50 (IGROV1 ovarian) of 1230 nM, a TGI (IGROV1 ovarian) of 2570 nM and a GI50 (KM12 colon) of 1520 nM. The TGI (KM12 colon) was 3750 nM.
